In patent US11357740B2, “Cannabidiol for enhancing the therapeutic effect of a steroid” (STERO BIOTECHS LTD., priority 2013, dated 2022):

Experiments:
[1] = tested on: patients undergoing allogeneic hematopoietic stem cell transplantation; assay: Prevention of acute and chronic GVHD in allogeneic stem cell transplanted patients (46 patients); assay type: in vivo, human; set-up: Non-relapse mortality / Overall survival rate: concentration or dose not given beside the values
Procedure: Forty six (46) patients over 18 years of age undergoing allogeneic hematopoietic stem cell transplantation at the Rabin Medical Center in Israel were recruited. Patients having history of psychosis or asthma, or consuming Cannabis during the last two months before transplantation were excluded from the study.
All patients received standard GVHD prophylaxis consisting of cyclosporine twice a day starting on day −1 with target trough levels ≥200 ng/mL in combination with short course of methotrexate (15 mg/sqm on day +1 and 10 mg/sqm on days +3 and +6). Most patients transplanted from unrelated donors received anti-T-cell globulin (ATG Fresenius) at a low dose of 5 mg/kg on days −3 to −1.
The investigational agent, CBD (STI Pharmaceuticals, Brentwood, Essex, UK) was dissolved in olive oil at a concentration of 2.5% and was orally administered from day −7 through day +30. The starting dose of CBD was 10 mg twice a day, and doses were doubled every other day to a maximal dose of 150 mg twice a day.
To estimate the prophylactic and therapeutic effect of Cannabidiol, the patients were carefully monitored and documented for the presentation of acute and chronic GVHD symptoms, the time of onset, the severity of the symptoms, the responsiveness to treatment, and the occurrence of infections.
Furthermore, a panel of 4 serum cytokines (soluble TNF receptor 1 (sTNFRI), soluble IL-2 receptor alpha (sIL2R-alpha), hepatocyte growth factor (HGF), and IL8)) were monitored. Blood samples were taken at days −7(A), 0(B), +14(C), and +28(D). The difference in blood levels between the various time points (B-A, C-B and D-C) were assessed.
Primary end points were safety and cumulative incidence of grade 2-4 and grade 3-4 GVHD by day +100. The secondary end points were cumulative incidence of chronic and severe chronic GVHD, non-relapse mortality (NRM), relapse incidence (RI), and overall survival (OS). NRM mortality was defined as death while the patient was in CR. Cumulative incidence curves were used for acute GVHD and chronic GVHD estimation, taking into account relapse and death as competing risks. Cumulative incidence curves were used for RI and NRM taking into account disease recurrence and death as competing events. Probabilities of OS and LFS were calculated using the Kaplan-Meier estimates.

[2] = tested on: patients with extensive chronic GVHD after allogeneic HCT; assay: CBD treatment for chronic GVHD (12 patients); assay type: in vivo, human; details: oral CBD 50 mg twice a day
Procedure: Twelve patients over 18 years of age with extensive chronic GVHD after allogeneic HCT were recruited at the Rabin Medical Center in Israel. Patients having a history of psychosis or asthma, or consuming Cannabis during the last two months before transplantation were excluded from the study.
Patients were presently treated with a calcineurine inhibitor (cyclosporine or tacrolimus) with or without oral prednisone.
Patients were given oral CBD 50 mg twice a day.

[3] = tested on: patients experiencing severe acute GVHD; assay: Case studies: CBD for severe (grade 3-4) and/or refractory acute GVHD; assay type: in vivo, human
Procedure: This example describes cases studies that show the surprising efficacy of CBD treatment of patients experiencing severe acute GVHD.
A person with acute myeloid leukemia in second complete remission, underwent an allogeneic hematopoietic cell transplantation from a matched sibling donor with a myeloablative conditioning consisting of fludarabine (160 mg/m^2) and busulfex (12.8 mg/kg). One month post-transplantation they developed classic grade 4 acute GVHD of the gastro-intestinal tract (GIT) confirmed by intestinal biopsy. They were refractory to cyclosporine and high-dose steroids, and was then given second line therapy consisting of mycophenolate mofetil followed by extra-corporeal photopheresis (ECP), from which a partial response was obtained. The patient then developed severe myopathy and became bed restricted. During tapering off of steroids they had relapse of grade 4 acute GVHD with GIT and skin involvement. They were refractory to high-dose steroids and thus started oral cannabidiol (CBD) 150 mg twice a day. […] CBD was stopped several weeks later upon remission. […] Nevertheless, they developed chronic GVHD for which they were given low dose cyclosporine and low dose prednisone.
A person with Philadelphia positive acute lymphoid leukemia in first complete remission underwent an allogeneic hematopoietic cell transplantation from a matched unrelated donor with reduced intensity conditioning consisting of fludarabine (150 mg/m^2), busulfex (12.8 mg/kg) and ATG (Fresenius, 15 mg/kg). Two months after transplantation, they developed generalized erythroderma ranked as stage 3 and grade 2 acute GVHD of the skin, which was confirmed by skin biopsy. Due to refractoriness to tacrolimus, systemic and topical steroids they started ECP with some improvement but without remission. They were still on tacrolimus and steroids when 11 months post-transplantation they had severe worsening of their skin rash with generalized erythroderma and desquamation ranked as stage 4 and grade 4 acute GVHD of the skin. They started oral CBD 150 mg twice a day and prednisone 40 mg once a day. […] CBD was stopped 2 months later after obtaining complete remission of acute GVHD.
A person with acute myeloid leukemia in first complete remission, underwent an allogeneic hematopoietic cell transplantation from a matched sibling donor with myeloablative conditioning consisting of busulfex (12.8 mg/kg) and cyclophosphamide (120 mg/kg). Eight months post-transplantation, leukemia relapsed. They received salvage chemotherapy followed by donor lymphocyte infusion (DLI) and achieved a complete hematologic remission. One month post DLI they developed jaundice with bilirubin levels of 11.5 mg % (normal≤1 mg %) and biopsy proven late onset acute GVHD of the liver ranked as stage 3 and grade 3. They were refractory to high-dose steroids and started oral CBD 150 mg twice a day.

[4] = tested on: patients experiencing severe refractory chronic GVHD; assay: Case studies: CBD for severe refractory chronic GVHD; assay type: in vivo, human; details: person
Procedure: This example describes cases studies that show the surprising efficacy of CBD treatment of patients experiencing severe refractory chronic GVHD.
A person with acute lymphoid leukemia in first complete remission, underwent an allogeneic hematopoietic cell transplantation from a matched unrelated donor with myeloablative conditioning consisting of total body irradiation (12 Gray), cyclophosphamide and ATG (Fresenius, 15 mg/kg). The patient developed an overlap syndrome (concomitant acute plus chronic GVHD features) during the first month after transplantation which was treated with cyclosporine and steroids until complete remission. Immunosuppression was stopped 5 months after transplantation. Eighteen months after transplantation they developed chronic extensive GVHD with involvement of the oral cavity, eyes, liver, joints and skin. Skin involvement progressed to sclerosis. They started again cyclosporine and oral steroids with no improvement. There was no further improvement with imatinib (Gleevec). […] Unexpectedly, Prednisone effective therapeutic dose was tapered off up to 7.5-10 mg QD (20-50% reduction in the steroid's dose).
A person with acute myeloid leukemia in second complete remission underwent an allogeneic hematopoietic cell transplantation from a matched sibling donor with myeloablative conditioning consisting of busulfex (12.8 mg/kg) and cyclophosphamide (120 mg/kg). The patient experienced relapse in the central nervous system and breasts 12 months after transplantation, received chemo-radiotherapy and achieved complete remission. Shortly after remission, they developed chronic extensive GVHD with severe involvement of the eyes, joint and skin. Skin involvement progressed to severe sclerosis with limited range of motion of the joints. They were unresponsive to cyclosporine and oral steroids and therefore they were stopped after few months.

[5] = tested on: patients with late onset acute GVHD given steroids; assay: Case studies: CBD reduces the effective dose of steroids (late onset acute GVHD); assay type: in vivo, human
Procedure: Person one with secondary acute myeloid leukemia in 1st complete remission, underwent and allogeneic hematopoietic cell transplantation from a matched unrelated donor with a myeloablative conditioning consisting of fludarabine (160 mg/m^2), busulfex (12.8 mg/kg) and ATG (Fresenius, 15 mg/kg). Eleven months after transplantation they developed jaundice with bilirubin level of 4.2 mg % and biopsy proven late onset acute GVHD of the liver ranked as stage 2 and grade 3. […] They started oral CBD 150 mg BID. […] Steroids could be tapered off to a low dose of 7.5 mg QD.
person two with refractory follicular lymphoma underwent an allogeneic hematopoietic cell transplantation from a matched unrelated donor with a reduced intensity conditioning consisting of fludarabine (150 mg/m^2), melphalan (100 mg/m^2) and ATG (Fresenius 15 mg/kg) and achieved a complete remission. Two years later they relapsed and received salvage immune-chemotherapy with bendamustine and rituximab followed by DLI and achieved a complete remission. One month later they were admitted with severe late onset acute GVHD with skin (rash) and upper (nausea and vomiting) plus lower gastrointestinal involvement (bloody diarrhea, crampy abdominal pain and severely inflamed and ulcerated mucosa). Biopsy proven GVHD was ranked as stage 3 of the skin and stage 4 and grade 4 acute GVHD of the GIT. They started cyclosporine and high-dose steroids. Despite skin response, GVHD of the GIT was refractory to prolonged systemic treatment of steroids. […] Prednisone was tapered off to 20 mg QD (40%)—found to be therapeutically effective.

[6] = tested on: patient suffering from psychological or neurological disorders; details: doses of up to 1500 mg per day; cited from earlier work
[7] = of the 11 patients with chronic GVHD
[8] = with calcineurine inhibitor with or without oral prednisone
[9] = person, stage 3 grade 3 acute GVHD of the liver, oral CBD 150 mg twice a day

C=C(C)[C@@H]1CCC(C)=C[C@H]1c1c(O)cc(CCCCC)cc1O [CBD, 2-[(6R)-3-Methyl-6-prop-1-en-2-yl-1cyclohex-2-envyl]-5pentylbenzene-1,3-diol]
Cumulative incidence of relapse ([1]; 6 months after HCT): 22%
Non-relapse mortality ([1]; 6 months after HCT): 11.6%
Overall survival rate ([1]; 6 months after HCT): 76%
Cumulative incidence of relapse ([1]; 12 months after HCT): 31%
Non-relapse mortality ([1]; 12 months after HCT): 11.6%
Overall survival rate ([1]; 12 months after HCT): 70%
patients who developed grade 2 to 4 acute GVHD ([1]; 46 patients recruited, CBD prophylaxis): Six
Cumulative incidence of relapse ([1]; 100 days after HCT): 12%
Non-relapse mortality ([1]; 100 days after HCT): 8.1%
Overall survival rate ([1]; 100 days after HCT): 84%
effect on incidence and severity of GVHD (conclusion) ([1]; after allogeneic stem cell transplantation): reduces the incidence and severity of acute and chronic GVHD
patients in whom chronic GVHD occurred ([1]; among patients surviving more than 100 days after HCT (n=33)): 11 patients
Cumulative incidence rate of extensive chronic GVHD ([1]; at 1 year): 19%
Cumulative incidence rate of overall chronic GVHD ([1]; at 1 year): 43%
Cumulative incidence rate of grade 2 to 4 acute GVHD ([1]; at day 100): 12.4%
Cumulative incidence rate of grade 3 to 4 acute GVHD ([1]; at day 100): 5%
patients with limited chronic GVHD [1, 7]: 8 patients
patients with severe chronic GVHD [1, 7]: 3 patients
grade 3 to 4 toxicities related to CBD ([1]; oral CBD 2.5% in olive oil, day -7 to +30, 10 mg up to 150 mg twice a day, with cyclosporine + methotrexate prophylaxis): No grade 3 to 4 toxicities related to CBD were observed
toxicity and psychotropic effects (conclusion) ([1]; preventing acute and chronic GVHD): low toxicity and lack of psychotropic effects
Median time to onset of grade 2 to 4 acute GVHD ([1]; range 41 to 150 days): 60 days
median time to onset of chronic GVHD ([1]; range 125 to 335 days): 159 days
effect on severity of chronic GVHD (conclusion) [2]: reduces the severity of chronic GVHD
clinical improvement, patients with lung involvement [2, 8]: 2 out of 3
clinical improvement, patients with oral involvement [2, 8]: 3 out of 3
clinical improvement, patients with skin involvement [2, 8]: 6 out of 8
effect on refractory steroid dose (conclusion of case studies) ([3]; acute Grade 3 and Grade 4 GVHD): rendered a refractory dose of a steroid-therapeutically effective
clinical response, grade 4 acute GVHD with GIT and skin involvement ([3]; person, refractory to high-dose steroids, oral CBD 150 mg twice a day, after 14 days): complete cessation of diarrhea and resolution of their skin rash
bilirubin level after treatment ([3]; person, stage 3 grade 3 acute GVHD of the liver, baseline 11.5 mg %, refractory to high-dose steroids, oral CBD 150 mg twice a day): 0.7-1.3 mg %
jaundice [3, 9]: resolved within few days
steroid tapering [3, 9]: tapered off until complete cessation
acute GVHD status at follow-up ([3]; person, eighteen months following cessation of treatment): no symptoms or signs of acute GVHD
skin rash and desquamation, stage 4 and grade 4 acute GVHD of the skin ([3]; person, oral CBD 150 mg twice a day and prednisone 40 mg once a day, on tacrolimus): improved promptly until complete resolution
clinical response, chronic extensive GVHD with severe sclerosis ([4]; cyclosporine and oral steroids stopped, oral CBD 75 mg BID, after several months): significant improvement of their skin and joints range of motion
clinical response, chronic extensive GVHD (oral cavity, eyes, liver, joints, skin sclerosis) ([4]; no improvement with cyclosporine, oral steroids, imatinib, oral CBD 75 mg twice a day, after several weeks): resolved their liver and oral GVHD and significantly improved skin sclerosis and joint range of motion
Prednisone effective therapeutic dose tapered off up to ([4]; oral CBD 75 mg twice a day): 7.5-10 mg QD
reduction in the steroid's dose ([4]; oral CBD 75 mg twice a day): 20-50%
jaundice and bilirubin, stage 3 and grade 3 acute GVHD of the liver ([5]; person one, bilirubin 8.5 mg % on tacrolimus and steroids, oral CBD 150 mg BID): Jaundice resolved gradually and bilirubin dropped to normal levels
steroid dose tapered off to ([5]; person one, oral CBD 150 mg BID): 7.5 mg QD
clinical response, stage 4 and grade 4 acute GVHD of the GIT ([5]; person two, refractory to prolonged systemic steroids, oral CBD 150 mg BID with steroids): very good partial response (VGPR)
response upon renewal of treatment ([5]; person two, methylprednisolone 0.5 mg/kg QD and CBD 150 mg BID): A second VGPR was obtained
Prednisone tapered off to ([5]; person two, oral CBD 150 mg BID): 20 mg QD
Prednisone tapered dose, printed percentage ([5]; person two, oral CBD 150 mg BID, prednisone 20 mg QD): 40%
outcome after discontinuing CBD ([5]; person two, two months later, CBD discontinued without doctors' approval): diarrhea resumed following discontinuing CBD
adverse effects in clinical studies [6]: without any significant adverse effects
